ChEMBL document CHEMBL3046641, “QSAR study of some CCR5 antagonists as anti-HIV agents using radial basis function neural network and general regression neural network on the basis of principal components” (Med Chem Res, 2012)

Molecular target: C-C chemokine receptor type 5 (Homo sapiens, UniProt P51681)
Assay: Antagonist activity at Homo sapiens (human) CCR5 receptor

C-C chemokine receptor type 5, sequence (P51681 whole entry): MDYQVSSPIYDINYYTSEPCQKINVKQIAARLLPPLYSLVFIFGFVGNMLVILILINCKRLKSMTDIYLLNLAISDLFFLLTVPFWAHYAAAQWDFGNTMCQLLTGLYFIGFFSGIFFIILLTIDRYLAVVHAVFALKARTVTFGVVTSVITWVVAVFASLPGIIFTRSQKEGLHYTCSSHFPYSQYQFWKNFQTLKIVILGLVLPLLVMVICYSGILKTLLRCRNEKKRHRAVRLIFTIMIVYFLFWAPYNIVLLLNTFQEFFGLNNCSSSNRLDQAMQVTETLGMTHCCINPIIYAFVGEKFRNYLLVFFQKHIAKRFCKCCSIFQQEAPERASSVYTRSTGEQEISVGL

IC50 | SMILES
2700 nM | CN(C)S(=O)(=O)N(C)C[C@@H](CCN1CCC2(CC1)C[S+]([O-])c1ccccc12)c1ccc(Cl)c(Cl)c1 (stereo partly specified)
400 nM | CN(C[C@@H](CCN1CCC2(CC1)CSc1ccccc12)c1ccc(Cl)c(Cl)c1)S(=O)(=O)c1ccccc1
400 nM | CN(C[C@@H](CCN1CCC2(CC1)CS(=O)(=O)c1ccccc12)c1ccc(Cl)c(Cl)c1)S(=O)(=O)c1ccccc1
8490 nM | CN(C[C@@H](CCN1CCC2(CC1)C[S+]([O-])c1ccccc12)c1ccc(Cl)c(Cl)c1)S(=O)(=O)c1cccnc1 (stereo partly specified)
50 nM | CN(C[C@@H](CCN1CCC2(CC1)C[S+]([O-])c1ccccc12)c1ccc(Cl)c(Cl)c1)S(=O)(=O)C1CCCCC1 (stereo partly specified)
50 nM | CN(C[C@@H](CCN1CCC(CCCc2ccccc2)CC1)c1cccc(Cl)c1)S(=O)(=O)c1ccccc1
600 nM | CN(C[C@@H](CCN1CCC2(CC1)CSc1ccccc12)c1cccc(Cl)c1)S(=O)(=O)c1ccccc1
1200 nM | CN(C[C@@H](CCN1CCC2(CC1)CS(=O)(=O)c1ccccc12)c1ccc(Cl)c(Cl)c1)S(=O)(=O)c1cccs1
1500 nM | CN1C(=O)c2ccccc2C12CCN(CC[C@H](CN(C)S(=O)(=O)c1ccccc1)c1cccc(Cl)c1)CC2
700 nM | CN(C[C@@H](CCN1CCC2(CC1)CS(=O)(=O)c1ccccc12)c1ccc(Cl)c(Cl)c1)S(=O)(=O)c1ccc([N+](=O)[O-])cc1
250 nM | CN(C[C@@H](CCN1CCC(c2ccc(Cl)cc2)CC1)c1cccc(Cl)c1)S(=O)(=O)c1ccccc1
1200 nM | CN(C[C@@H](CCN1CCC2(CC1)CNc1ccccc12)c1cccc(Cl)c1)S(=O)(=O)c1ccccc1
650 nM | CN(C[C@@H](CCN1CCC(Cc2ccccc2)CC1)c1cccc(Cl)c1)S(=O)(=O)c1ccccc1
1000 nM | CN(C[C@@H](CCN1CCC2(CC1)C[S+]([O-])c1ccccc12)c1ccc(Cl)c(Cl)c1)S(=O)(=O)c1ccc(-c2ccccc2)cc1 (stereo partly specified)
1000 nM | CN(C[C@@H](CCN1CCC2(CC1)C[S+]([O-])c1ccccc12)c1ccc(Cl)c(Cl)c1)S(=O)(=O)c1cncc2ccccc12 (stereo partly specified)
3400 nM | CN(C[C@@H](CCN1CCC2(CC1)C[S+]([O-])c1ccccc12)c1ccc(Cl)c(Cl)c1)S(=O)(=O)c1ccc2ccccc2c1 (stereo partly specified)
899 nM | CN(C[C@@H](CCN1CCC2(CCc3ccccc32)CC1)c1cccc(Cl)c1)S(=O)(=O)c1ccccc1
24000 nM | CN(C[C@@H](CCN1CCC2(CC1)CC(O)c1ccccc12)c1cccc(Cl)c1)S(=O)(=O)c1ccccc1 (stereo partly specified)
5900 nM | CN(C[C@@H](CCN1CCC2(CC1)C[S+]([O-])c1ccccc12)c1ccc(Cl)c(Cl)c1)S(=O)(=O)c1ccc2c(c1)CCC2 (stereo partly specified)
4000 nM | CN(C[C@@H](CCN1CCC2(CC1)Cc1ccccc1O2)c1cccc(Cl)c1)S(=O)(=O)c1ccccc1
3600 nM | CN(C[C@@H](CCN1CCC2(CC1)C[S+]([O-])c1ccccc12)c1ccc(Cl)c(Cl)c1)S(=O)(=O)c1cccs1 (stereo partly specified)
1000 nM | COc1ccccc1C1CCN(CC[C@H](CN(C)S(=O)(=O)c2ccccc2)c2cccc(Cl)c2)CC1
2600 nM | CN(C[C@@H](CCN1CCC2(CC1)C[S+]([O-])c1ccccc12)c1ccc(Cl)c(Cl)c1)S(=O)(=O)c1cccc2ccccc12 (stereo partly specified)

IC50 | SMILES
14000 nM | CN(C[C@@H](CCN1CCC2(CC1)C[S+]([O-])c1ccccc12)c1ccc(Cl)c(Cl)c1)S(=O)(=O)c1cccc2cccnc12 (stereo partly specified)
300 nM | CN(C[C@@H](CCN1CCC2(CC1)NC(=O)c1ccccc12)c1cccc(Cl)c1)S(=O)(=O)c1ccccc1
1000 nM | CN(C[C@@H](CCN1CCC2(CC1)CS(=O)(=O)c1ccccc12)c1cccc(Cl)c1)S(=O)(=O)c1ccccc1
600 nM | CN(C[C@@H](CCN1CCC(CCc2ccccc2)CC1)c1cccc(Cl)c1)S(=O)(=O)c1ccccc1
1000 nM | CN(C[C@@H](CCN1CCC2(CC1)C[S+]([O-])c1ccccc12)c1ccc(Cl)c(Cl)c1)S(=O)(=O)c1cccc(Cl)c1 (stereo partly specified)
500 nM | CN(C[C@@H](CCN1CCC2(CC1)C[S+]([O-])c1ccccc12)c1ccc(Cl)c(Cl)c1)S(=O)(=O)C1CCCC1 (stereo partly specified)
10000 nM | CN(C[C@@H](CCN1CCC(c2ccccc2)CC1)c1cccc(Cl)c1)S(=O)(=O)c1ccccc1
350 nM | COc1ccc(S(=O)(=O)N(C)C[C@@H](CCN2CCC3(CC2)C[S+]([O-])c2ccccc23)c2ccc(Cl)c(Cl)c2)cc1 (stereo partly specified)
100 nM | CN(C[C@@H](CCN1CCC2(CC1)C[S+]([O-])c1ccccc12)c1ccc(Cl)c(Cl)c1)S(=O)(=O)Cc1ccccc1 (stereo partly specified)
2500 nM | CN(C[C@@H](CCN1CCC(c2ccc(F)cc2)CC1)c1cccc(Cl)c1)S(=O)(=O)c1ccccc1
150 nM | CN(C[C@@H](CCN1CCC2(CC1)C[S+]([O-])c1ccccc12)c1ccc(Cl)c(Cl)c1)S(C)(=O)=O (stereo partly specified)
1000 nM | CN(C[C@@H](CCN1CCC2(CC1)C[S+]([O-])c1ccccc12)c1ccc(Cl)c(Cl)c1)S(=O)(=O)c1cn(C)cn1 (stereo partly specified)
800 nM | CN(C[C@@H](CCN1CCC2(CC1)CS(=O)(=O)c1ccccc12)c1ccc(Cl)c(Cl)c1)S(=O)(=O)c1cccc([N+](=O)[O-])c1
3400 nM | CN(C[C@@H](CCN1CCC2(CC1)CC(=O)c1ccccc12)c1cccc(Cl)c1)S(=O)(=O)c1ccccc1
450 nM | CN(C[C@@H](CCN1CCC2(CC1)C[S+]([O-])c1ccccc12)c1ccc(Cl)c(Cl)c1)S(=O)(=O)c1ccccc1Cl (stereo partly specified)
7000 nM | CN(C[C@@H](CCN1CCC2(CC1)CC(=O)Nc1ccccc12)c1ccc(Cl)c(Cl)c1)S(=O)(=O)c1cccc([N+](=O)[O-])c1
2000 nM | CN(C[C@@H](CCN1CCC(c2cccc(C(F)(F)F)c2)CC1)c1cccc(Cl)c1)S(=O)(=O)c1ccccc1
350 nM | CN(C[C@@H](CCN1CCC2(CC1)C[S+]([O-])c1ccccc12)c1ccc(Cl)c(Cl)c1)S(=O)(=O)c1ccc(Cl)cc1 (stereo partly specified)
700 nM | CN(C[C@@H](CCN1CCC2(CC1)C[S+]([O-])c1ccccc12)c1cccc(Cl)c1)S(=O)(=O)c1ccccc1 (stereo partly specified)
1200 nM | Cc1ccccc1C1CCN(CC[C@H](CN(C)S(=O)(=O)c2ccccc2)c2cccc(Cl)c2)CC1
350 nM | Cc1ccccc1N1CCN(CC[C@H](CN(C)S(=O)(=O)c2ccccc2)c2cccc(Cl)c2)CC1
1800 nM | CCCCCCCCS(=O)(=O)N(C)C[C@@H](CCN1CCC2(CC1)C[S+]([O-])c1ccccc12)c1ccc(Cl)c(Cl)c1 (stereo partly specified)
600 nM | CN(C[C@@H](CCN1CCC2(CC1)CNC(=O)c1ccccc12)c1ccc(Cl)c(Cl)c1)S(=O)(=O)c1cccc([N+](=O)[O-])c1
